Reference: US12281122B1, “PI3K inhibitors” (Cogent Biosciences, Inc., priority 2023, dated 2025)

Legend:
[1] = system: SKBR3 (PI3Kα-Wild Type) cell line; test: HTRF phospho-AKT(S473) cell assay in SKBR3 cells; type: cell-based, human; details: Homo sapiens, SK-BR-3, 2 hours compound incubation, PDGF-BB stimulated
How it was run: (§1)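 pAKT(S473) in lysates read by HTRF after a 2 h, 37 °C compound exposure (12-point 1:3 series, max 0.5% DMSO). SKBR3 (wild type, top 10 μM) received 70 ng/ml PDGF-BB during the final 15 min; T47D (H1047R, top 5 μM) was unstimulated. IC50 values derived from the dose-response.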

[2] = system: T47D (PI3Kα-H1047R) cell line; test: HTRF phospho-AKT(S473) cell assay in T47D cells; type: cell-based, human; details: Homo sapiens, 2 hours compound incubation
How it was run: as §1

[3] = SKBR3 (PI3Kα-Wild Type) cells, HTRF phospho-AKT(S473)
[4] = T47D (PI3Kα-H1047R) cells, HTRF phospho-AKT(S473)
[5] = HTRF phospho-AKT(S473), SKBR3 (PI3Kα-Wild Type) cells
[6] = HTRF phospho-AKT(S473), T47D (PI3Kα-H1047R) cells

| Structure (SMILES) | IC50 [1, 3] | IC50 [2, 4] | IC50 [1, 5] | IC50 [2, 6] | further results |
| --- | --- | --- | --- | --- | --- |
| Cc1cc([C@@H](C)Nc2ccc(Cl)nc2C(=O)NS(=O)(=O)NC2CC2)c2nc(N3Cc4ccc(F)cc4C3)n(C)c(=O)c2c1 [Compound 152, (R)-6-chloro-N-(N-cyclopropylsulfamoyl)-3-((1-(2-(5-fluoroisoindolin-2-yl)-3,6-dimethyl-4-oxo-3,4-dihydroquinazolin-8-yl)ethyl)amino)picolinamide] | ≥ 5000 nM | 250 to 500 nM |  |  |  |
| Cc1cc([C@@H](C)Nc2ccc(Cl)nc2C(=O)NS(C)(=O)=O)c2nc(N3C[C@@H]4C[C@H]3CN4c3ncc(C#N)cc3F)n(C)c(=O)c2c1 [Compound 579, 6-chloro-3-(((R)-1-(2-((1S,4S)-5-(5-cyano-3-fluoropyridin-2-yl)-2,5-diazabicyclo [2.2.1]heptan-2-yl)-3,6-dimethyl-4-oxo-3,4-dihydroquinazolin-8-yl)ethyl)amino)-N-(methylsulfonyl) picolinamide] |  |  | ≥ 5000 nM | 250 to 500 nM |  |
| Cc1cc([C@@H](C)Nc2ccc(Cl)nc2C(=O)NS(C)(=O)=O)c2nc(N3CCC[C@H](c4cc[nH]n4)C3)n(C)c(=O)c2c1 (relative stereo) [Compound 213, 3-(((R)-1-(2-((R*)-3-(1H-pyrazol-3-yl)piperidin-1-yl)-3,6-dimethyl-4-oxo-3,4-dihydroquinazolin-8-yl)ethyl)amino)-6-chloro-N-(methylsulfonyl) picolinamide] | 1000 to 5000 nM | < 250 nM |  |  |  |
| COc1ccnn1C1CCN(c2nc3c([C@@H](C)Nc4ccc(Cl)nc4C(=O)NS(C)(=O)=O)cc(C)cc3c(=O)n2C)CC1 [Compound 318, (R)-6-chloro-3-((1-(2-(4-(5-methoxy-1H-pyrazol-1-yl)piperidin-1-yl)-3,6-dimethyl-4-oxo-3,4-dihydroquinazolin-8-yl)ethyl)amino)-N-(methylsulfonyl) picolinamide] | 1000 to 5000 nM | < 250 nM |  |  |  |
| Cc1cc([C@@H](C)Nc2ccc(Cl)nc2C(=O)NS(C)(=O)=O)c2nc([C@H]3[C@@H]4CN(c5nccc(C)n5)C[C@@H]43)n(C)c(=O)c2c1 [Compound 826, 6-chloro-3-(((R)-1-(3,6-dimethyl-2-((1R,5S,6r)-3-(4-methylpyrimidin-2-yl)-3-azabicyclo[3.1.0]hexan-6-yl)-4-oxo-3,4-dihydroquinazolin-8-yl)ethyl)amino)-N-(methylsulfonyl) picolinamide] |  |  | ≥ 5000 nM | 250 to 500 nM |  |
| Cc1cc([C@@H](C)Nc2ccc(Cl)nc2C(=O)NS(C)(=O)=O)c2nc(N3Cc4cn(CC5CC5)nc4C3)n(C)c(=O)c2c1 [Compound 683, (R)-6-chloro-3-((1-(2-(2-(cyclopropylmethyl)-2,6-dihydropyrrolo[3,4-c]pyrazol-5(4H)-yl)-3,6-dimethyl-4-oxo-3,4-dihydroquinazolin-8-yl)ethyl)amino)-N-(methylsulfonyl) picolinamide] |  |  | 1000 to 5000 nM | 250 to 500 nM |  |
| Cc1cc([C@@H](C)Nc2ccc(Cl)nc2C(=O)NS(C)(=O)=O)c2nc(C3CCN(c4ncc(C#N)cc4C)CC3)n(C)c(=O)c2c1 [Compound 837, (R)-6-chloro-3-((1-(2-(1-(5-cyano-3-methylpyridin-2-yl)piperidin-4-yl)-3,6-dimethyl-4-oxo-3,4-dihydroquinazolin-8-yl)ethyl)amino)-N-(methylsulfonyl) picolinamide] |  |  | 1000 to 5000 nM | 250 to 500 nM |  |
| Cc1cc([C@@H](C)Nc2ccc(Cl)nc2C(=O)NS(C)(=O)=O)c2nc(N3Cc4cn([C@H](C)C(F)(F)F)nc4C3)n(C)c(=O)c2c1 (relative stereo) [Compound 224, 6-chloro-3-(((R)-1-(3,6-dimethyl-4-oxo-2-(2-((R*)-1,1,1-trifluoropropan-2-yl)-2,6-dihydropyrrolo[3,4-c]pyrazol-5(4H)-yl)-3,4-dihydroquinazolin-8-yl)ethyl)amino)-N-(methylsulfonyl) picolinamide] | 1000 to 5000 nM | < 250 nM |  |  |  |
| COc1cnc(C2CCN(c3nc4c([C@@H](C)Nc5ccc(Cl)nc5C(=O)NS(C)(=O)=O)cc(C)cc4c(=O)n3C)CC2)cn1 [Compound 408, (R)-6-chloro-3-((1-(2-(4-(5-methoxypyrazin-2-yl)piperidin-1-yl)-3,6-dimethyl-4-oxo-3,4-dihydroquinazolin-8-yl)ethyl)amino)-N-(methylsulfonyl) picolinamide] | ≥ 5000 nM | < 250 nM |  |  |  |
| Cc1cc([C@@H](C)Nc2ccc(Cl)nc2C(=O)NS(C)(=O)=O)c2nc(N3CC[C@H](Oc4cnn(CC(F)(F)F)c4)C3)n(C)c(=O)c2c1 [Compound 330, 6-chloro-3-(((R)-1-(3,6-dimethyl-4-oxo-2-((S)-3-((1-(2,2,2-trifluoroethyl)-1H-pyrazol-4-yl)oxy)pyrrolidin-1-yl)-3,4-dihydroquinazolin-8-yl)ethyl)amino)-N-(methylsulfonyl) picolinamide] | 1000 to 5000 nM | < 250 nM |  |  |  |
| Cc1cc([C@@H](C)Nc2ccc(Cl)nc2C(=O)NS(C)(=O)=O)c2nc(N3CCC(c4nn(C)cc4C#N)CC3)n(C)c(=O)c2c1 [Compound 697, (R)-6-chloro-3-((1-(2-(4-(4-cyano-1-methyl-1H-pyrazol-3-yl)piperidin-1-yl)-3,6-dimethyl-4-oxo-3,4-dihydroquinazolin-8-yl)ethyl)amino)-N-(methylsulfonyl) picolinamide] |  |  | 1000 to 5000 nM | 250 to 500 nM |  |
| Cc1cc([C@@H](C)Nc2ccc(Cl)nc2C(=O)NS(C)(=O)=O)c2nc(N3CCC(n4ncc(F)c4C)CC3)n(C)c(=O)c2c1 [Compound 712, (R)-6-chloro-3-((1-(2-(4-(4-fluoro-5-methyl-1H-pyrazol-1-yl)piperidin-1-yl)-3,6-dimethyl-4-oxo-3,4-dihydroquinazolin-8-yl)ethyl)amino)-N-(methylsulfonyl) picolinamide] |  |  | 1000 to 5000 nM | < 250 nM |  |
| Cc1cc([C@@H](C)Nc2ccc(Cl)nc2C(=O)NS(C)(=O)=O)c2nc(N3CCN(c4ccc(C#N)cn4)CC3)n(C)c(=O)c2c1 [Compound 164, (R)-6-chloro-3-((1-(2-(4-(5-cyanopyridin-2-yl)piperazin-1-yl)-3,6-dimethyl-4-oxo-3,4-dihydroquinazolin-8-yl)ethyl)amino)-N-(methylsulfonyl) picolinamide] | 1000 to 5000 nM | < 250 nM |  |  |  |
| C[C@@H](Nc1ccc(Cl)nc1C(=O)NS(C)(=O)=O)c1cc(F)cc2c(=O)n(C)c(N3C[C@@H]4[C@H](C3)[C@H]4c3ccn(C)n3)nc12 [Compound 373, 6-chloro-3-(((R)-1-(6-fluoro-3-methyl-2-((1R,5S,6R)-6-(1-methyl-1H-pyrazol-3-yl)-3-azabicyclo[3.1.0]hexan-3-yl)-4-oxo-3,4-dihydroquinazolin-8-yl)ethyl)amino)-N-(methylsulfonyl) picolinamide] | 1000 to 5000 nM | 250 to 500 nM |  |  |  |
| Cc1cc([C@@H](C)Nc2ccc(Cl)nc2C(=O)NS(C)(=O)=O)c2nc(N3[C@@H]4CC[C@H]3C[C@H](c3ccn(C)n3)C4)n(C)c(=O)c2c1 [Compound 342, 6-chloro-3-(((R)-1-(3,6-dimethyl-2-((1R,3S,5S)-3-(1-methyl-1H-pyrazol-3-yl)-8-azabicyclo[3.2.1]octan-8-yl)-4-oxo-3,4-dihydroquinazolin-8-yl)ethyl)amino)-N-(methylsulfonyl) picolinamide] | 1000 to 5000 nM | < 250 nM |  |  |  |
| Cc1cc([C@@H](C)Nc2ccc(Cl)nc2C(=O)NS(C)(=O)=O)c2nc(N3CCC(c4cn(C(C)C)nn4)CC3)n(C)c(=O)c2c1 [Compound 573, (R)-6-chloro-3-((1-(2-(4-(1-isopropyl-1H-1,2,3-triazol-4-yl)piperidin-1-yl)-3,6-dimethyl-4-oxo-3,4-dihydroquinazolin-8-yl)ethyl)amino)-N-(methylsulfonyl) picolinamide] |  |  | 1000 to 5000 nM | < 250 nM |  |
| Cc1cc([C@@H](C)Nc2ccc(Cl)nc2C(=O)NS(C)(=O)=O)c2nc(N3CCO[C@H](c4ccccc4)C3)n(C)c(=O)c2c1 [Compound 689, 6-chloro-3-(((R)-1-(3,6-dimethyl-4-oxo-2-((R)-2-phenylmorpholino)-3,4-dihydroquinazolin-8-yl)ethyl)amino)-N-(methylsulfonyl) picolinamide] |  |  | 1000 to 5000 nM | < 250 nM |  |
| Cc1cc([C@@H](C)Nc2ccc(Cl)nc2C(=O)NS(C)(=O)=O)c2nc(-c3ccc(OC4CCN(CC(F)(F)F)CC4)nc3)n(C)c(=O)c2c1 [Compound 846, (R)-6-chloro-3-((1-(3,6-dimethyl-4-oxo-2-(6-((1-(2,2,2-trifluoroethyl)piperidin-4-yl)oxy)pyridin-3-yl)-3,4-dihydroquinazolin-8-yl)ethyl)amino)-N-(methylsulfonyl) picolinamide] |  |  |  |  | IC50 ([1]; SKBR3 (PI3Kα-Wild Type) cell line, phospho-AKT(S473) HTRF): ≥ 5000 nM; IC50 ([2]; T47D (PI3Kα-H1047R) cell line, phospho-AKT(S473) HTRF): 250 to 500 nM |
| Cc1cc([C@@H](C)Nc2ccc(Cl)nc2C(=O)NS(C)(=O)=O)c2nc(-c3ccc(Oc4cnn(C)c4)nc3)n(C)c(=O)c2c1 [Compound 816, (R)-6-chloro-3-((1-(3,6-dimethyl-2-(6-((1-methyl-1H-pyrazol-4-yl)oxy)pyridin-3-yl)-4-oxo-3,4-dihydroquinazolin-8-yl)ethyl)amino)-N-(methylsulfonyl) picolinamide] |  |  | 1000 to 5000 nM | < 250 nM |  |
